Laboratory results from PubChem BioAssay (NCI).
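Method: 48-hour compound exposure of cells in 96-well plates, five concentrations, linear interpolation of endpoints. The concentration for full growth arrest is given as TGI.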

Columns and labels:
Assay in all cases: NCI anticancer screen, dose series, 48 h
A498 renal = tested on: A498 renal
DMS 273 small cell lung = tested on: DMS 273 small cell lung
HL-60(TB) leukemia = tested on: HL-60(TB) leukemia
HS 578T breast = tested on: HS 578T breast
HT29 colon = tested on: HT29 colon
IGROV1 ovarian = tested on: IGROV1 ovarian
K-562 leukemia = tested on: K-562 leukemia
KM12 colon = tested on: KM12 colon
LOX IMVI melanoma = tested on: LOX IMVI melanoma
MCF7 breast = tested on: MCF7 breast
MDA-MB-231 breast = tested on: MDA-MB-231 breast
MDA-N = tested on: MDA-N
MOLT-4 leukemia = tested on: MOLT-4 leukemia
NCI/ADR-RES ovarian = tested on: NCI/ADR-RES ovarian
SF-539 CNS = tested on: SF-539 CNS
SK-MEL-2 melanoma = tested on: SK-MEL-2 melanoma
SK-MEL-28 melanoma = tested on: SK-MEL-28 melanoma
SN12C renal = tested on: SN12C renal
SR leukemia = tested on: SR leukemia
UACC-257 melanoma = tested on: UACC-257 melanoma

Q: With O=C1CCCC2=C(N1)C(=O)C=CC2=O as the compound, how does the TGI (A498 renal) read?
A: Its TGI is greater than 70.4 µM.

Q: What about the TGI (DMS 273 small cell lung) of the same compound?
A: The TGI was greater than 100 µM.

Q: And the TGI (HL-60(TB) leukemia)?
A: The TGI was 73.5 µM.

Q: And the TGI (HS 578T breast)?
A: Its TGI is 79.4 µM.

Q: What about the TGI (HT29 colon) of the same compound?
A: The TGI was 59 µM.

Q: What about the TGI (IGROV1 ovarian) of the same compound?
A: The TGI was 57.2 µM.

Q: And the TGI (K-562 leukemia)?
A: The TGI was 32 µM.

Q: And the TGI (KM12 colon)?
A: The TGI was 36.7 µM.

Q: And the TGI (LOX IMVI melanoma)?
A: The TGI was greater than 65.8 µM.

Q: And the TGI (MCF7 breast)?
A: Its TGI is 38.4 µM.

Q: What about the TGI (MDA-MB-231 breast) of the same compound?
A: Its TGI is 33.5 µM.

Q: What about the TGI (MDA-N) of the same compound?
A: Its TGI is 30.9 µM.

Q: And the TGI (MOLT-4 leukemia)?
A: The TGI was 31.5 µM.

Q: And the TGI (NCI/ADR-RES ovarian)?
A: The TGI was greater than 70.5 µM.

Q: And the TGI (SF-539 CNS)?
A: The TGI was 59.1 µM.

Q: What about the TGI (SK-MEL-2 melanoma) of the same compound?
A: The TGI was 60.4 µM.

Q: And the TGI (SK-MEL-28 melanoma)?
A: Its TGI is 60.4 µM.

Q: What about the TGI (SN12C renal) of the same compound?
A: Its TGI is greater than 69.2 µM.

Q: And the TGI (SR leukemia)?
A: The TGI was 57.8 µM.

Q: What about the TGI (UACC-257 melanoma) of the same compound?
A: Its TGI is 61.1 µM.
